Measurements as given in patent US20240207242A1, “PHARMACEUTICAL COMPOSITION COMPRISING SPHINGOSINE-1-PHOSPHATE RECEPTOR AGONIST WITH CONTROLLED PARTICLE SIZE” (LG CHEM, LTD., priority 2021, published 2024).
Counter-ions that a name gives are not always drawn.

Assay: Pharmacokinetic property (plasma concentration), crossover, tablets (FIG. 3)
Format: in vivo
Conditions: male beagle dogs, tablets with Samples 5 to 7
Experimental: A crossover design of taking all three tablets (active ingredients having a particle size of Samples 5 to 7) was applied to this experimentation, and the three tablets were administered to male beagle dogs once each with a 14-day wash-out period. Each dose was taken with 50 mL of water while maintaining the fasted state for at least 14 hours. The results are represented in FIG. 3.

particle size d(0.9) based on Cmax to show bioequivalence in terms of pharmacokinetics: ≤ 60 μm
Compound: CC(C)n1nc(Cl)c2cc(COc3ccc4c(c3)CCC(CN3CCC(C(=O)O)CC3)=C4Cl)ccc21 [API, 1-[1-chloro-6-(3-chloro-1-isopropyl-1H-indazol-5-ylmethoxy)-3,4-dihydro-naphthalen-2-ylmethyl]-piperidine-4-carboxylic acid hydrochloride]
